The results in this text go back to patent US4990450A, “Method of producing endo-α-N-acetylgalactosaminidase from microorganisms” (Seitetsu Kagaku Co., Ltd., priority 1987, dated 1991).

Data set [1] deals with endo-α-GalNAcase. Description: Effects of inhibitors (additives) on enzyme activity. It is filed as biochemical, Alcaligenes sp. F-1906. The method, then:
(§1) The activity of this enzyme can be measured with asialofetuin as a substrate. The enzyme reaction is carried out in citrate buffer, pH 4.5, at 37° C., and then stopped by adding a borate buffer, pH 9.1, to this reaction mixture. The Gal β1→3GalNAc produced is measured by the method of Reissig. One unit of enzyme activity is defined as the amount of enzyme that releases 1 μmol of Gal β1,→3GalNAc in one minute.
The enzyme was tested for the effects of various kinds of substances.

Another data set has as its system asialofetuin. Description: Enzyme activity with asialofetuin as substrate (optimum pH, optimum temperature, activity of purified enzyme). The data set is classed as biochemical. The method, then: as §1
(§2) The optimum pH of the enzyme reaction is 4.5-5.0 The enzyme is stable in the pH range of 4.2-6.5. thin this pH range, the activity remains about 90% or more after the enzyme is left at 1 hour at 30° C.
(§3) The optimum temperature for the enzyme reaction is 40-45° C. The temperature at which the enzyme is stable for 10 minutes when kept in a phosphate buffer, pH 6.0, is 30° C. or less. At 40° C., about 70% of the activity remains after such treatment.
Commercially available mucin from pig gastric mucosa was mixed with 1 N sulfuric acid and left for 1 hour at 80° C. for hydrolysis, which removed the sialic acid moiety of the mucin. The hydrolysate was added to the medium at the concentration of 1%. Five hundred milliliters of the medium was put into each of 40 flasks with a capacity of 2 liters, which were sterilized and were inoculated with 5 ml of pre-cultured Alcaligenes sp. F-1906. The flasks were cultured at 28° C. for 3 days. After the culture, the bacterial cells were removed by centrifugation, and the supernatant of the culture was obtained. Ammonium sulfate was added to this supernatant at 0-5° C. and the fractions that precipitated at the saturation of 40-80% ammonium sulfate were collected. This precipitate was dissolved in 0.01 M phosphate buffer, pH 6.0, and then dialyzed overnight against the same buffer. The dialysate was put on a DEAE-Sephadex® A-50 column (5.0×32.5 cm) equilibrated with 0.01 M phosphate buffer. After the column was washed with the same buffer containing 0.2 M NaCl, the enzyme was eluted with the same buffer containing 0.4 M NaCl. […]

A short description of data set [2]: pH and temperature stability of the enzyme. It is filed as physicochemical. The method, then: as §2, §3
The subject of data set [3] is endo-α-GalNAcase. Description: Substrate specificity of the enzyme. It is filed as biochemical, Alcaligenes sp. F-1906.
[4] abbreviates: additive concentration 2.4 mM, no additive = 100.
The mark [5] stands for this setting: additive concentration 2.5 mM, no additive = 100.
[6] abbreviates: additive concentration 2.0 mM, no additive = 100.

Read-outs that look alike come from different tables or passages of the source. Bounds are passed on as bounds.

As to `N[C@@H](CS)C(=O)O` [Cysteine], the “Inhibition of the enzyme” value in the data set with endo-α-GalNAcase [1] (Table 2) is on record as “approximately 30%”. Besides, the Relative activity with endo-α-GalNAcase [1] (setting [4]) is listed as 68%.
Take `[Ca+2]` [Ca]: the Relative activity in the data set with endo-α-GalNAcase [1] (setting [5]) came to 109%.
As to “endo-α-N-acetylgalactosaminidase [endo-α-GalNAcase]”, in the data set with asialofetuin, the “Optimum pH of the enzyme reaction” value was 4.5-5.0 and the “Optimum temperature for the enzyme reaction” value was 40-45 °C. Further, in the data set with asialofetuin (purified form, Example 1), the “relative activity of purified enzyme” value was determined as 2.2 units/mg. In data set [2] (40° C., 10 minutes in phosphate buffer, pH 6.0), the Activity remaining entry is “about 70%”. The “Temperature at which the enzyme is stable” value in data set [2] (10 minutes in phosphate buffer, pH 6.0) is at most 30 °C. Moreover, the “pH range in which the enzyme is stable” value in data set [2] (1 hour at 30° C.) is 4.2-6.5. The Activity remaining in data set [2] (within pH 4.2-6.5, 1 hour at 30° C.) was at least 90%.
As for `OC[C@H]1OC(O)[C@H](O)[C@@H](O)[C@@H]1O` (stereo partly drawn) [Glucose], the Relative activity in the data set on endo-α-GalNAcase [1] (setting [6]) stood at 109%.
Take `OC[C@H]1OC(O)[C@H](O)[C@@H](O)[C@H]1O` (stereo partly drawn) [Galactose]: in the data set with endo-α-GalNAcase [1] (setting [6]), the Relative activity is on record as 107%.
`O=C(O)CN(CCN(CC(=O)O)CC(=O)O)CC(=O)O` [Ethylenediamine-tetraacetic acid]: the Relative activity in the data set on endo-α-GalNAcase [1] (setting [5]) is on record as 97%.
On to `CC(=O)N[C@H]1[C@H]([C@H](O)[C@H](O)CO)OC(O)(C(=O)O)C[C@@H]1O` (stereo partly drawn) [Sialic acid], for which the Relative activity in the data set on endo-α-GalNAcase [1] (additive concentration 1.0 mM, no additive = 100) is on record as 106%.
For “asialofetuin: glycoprotein with O-glycosidic Gal β1→3GalNAc α→Ser (or Thr) sugar chains, used as substrate”, the “Use as substrate of the enzyme” value in the data set with endo-α-GalNAcase [3] is “can be used as substrates”.
Regarding `[Cu+2]` [Cu], in the data set with endo-α-GalNAcase [1] (Table 2), the “Inhibition of the enzyme” value is 26-35%. Besides, the Relative activity in the data set with endo-α-GalNAcase [1] (setting [5]) is on record as 74%.
Consider `N[C@H]1C(O)O[C@H](CO)[C@H](O)[C@@H]1O` (stereo partly drawn) [Galactosamine], for which, in the data set with endo-α-GalNAcase [1] (setting [6]), the Relative activity stood at 106%.
Still for that read-out and setting: to `N[C@H]1C(O)O[C@H](CO)[C@@H](O)[C@@H]1O` (stereo partly drawn) [Glucosamine] belongs 111%.
In the case of `OCCS` [Mercaptoethanol], the “Effect on enzyme activity (in words)” value in the data set with endo-α-GalNAcase [1] (Table 2) was “almost unaffected”. The Relative activity with endo-α-GalNAcase [1] (setting [4]) turned out to be 97%.
`O=C(O)c1cc[c]([Hg][Cl])cc1` [p-Chloromercuribenzoic acid]: the “Effect on enzyme activity (in words)” value with endo-α-GalNAcase [1] (Table 2) is “almost unaffected”. Further, the Relative activity in the data set with endo-α-GalNAcase [1] (setting [4]) is 99%.
Regarding `[Zn+2]` [Zn], the Relative activity in the data set on endo-α-GalNAcase [1] (setting [5]) was 88%.
On to `O=C(O)CI` [Iodoacetic acid], for which the “Effect on enzyme activity (in words)” value in the data set on endo-α-GalNAcase [1] is “almost unaffected”. For the same molecule, the Relative activity with endo-α-GalNAcase [1] (endo-alpha-galnacase, pH 4.5, 2400 µM) is 109%.
On to `[Mn+2]` [Mn], for which the “Inhibition of the enzyme” value with endo-α-GalNAcase [1] (Table 2) was 26-35%. Besides, in the data set with endo-α-GalNAcase [1] (setting [5]), the Relative activity came out at 65%.
Regarding `CCN1C(=O)C=CC1=O` [N-Ethylmaleimide], in the data set with endo-α-GalNAcase [1] (Table 2), the “Effect on enzyme activity (in words)” value is “almost unaffected”. The Relative activity in the data set on endo-α-GalNAcase [1] (setting [4]) amounted to 105%.
